Reference: patent publication US20250186431A1, “PHARMACEUTICAL COMPOSITION FOR RADIOTHERAPY, AND METHOD FOR TREATING SOLID CANCER USING SAME” (Kyoto University, priority 2022, published 2025)
Structures can show the parent of a compound that is named as a salt.

What was measured:
OVCAR8 tumor spheroid [1] = experiment: Destruction of spheroid by monochromatic X-ray irradiation; format: cell-based, Human; settings: 30 minutes, then 3 days incubation
Experimental: Irradiation of monochromatic X-rays was performed in beamline BL14B1 of large-scale synchrotron radiation facility SPring-8 located in Sayo-cho, Sayo-gun, Hyogo Prefecture, Japan. […] First, white X-ray generated from the bending magnet of SPring-8 was guided to an exit-position fixed two-crystal monochromator having silicon 311 crystal to generate a monoenergetic X-ray beam (monochromatic X-ray). SPring-8 storage ring was operated in the top-up mode under which fluctuation of X-ray intensity over time can be ignored due to a constant storage current of 100 mA to perform an irradiation experiment. The shape of the X-ray beam was controlled by using horizontal and vertical transport channel (TC) slits. The size of the X-ray beam at the position of a sample was 0.7 mm in height×1.4 mm in width. This is large enough to cover a spheroid having a size of 0.5 mm×0.5 mm. During experiments, the intensity of the X-ray beam was monitored in two ion chambers arranged on the optical axis. The X-ray transmitted was monitored by a CCD camera to control the position of the sample. […] Spheroids are placed at the bottom of tubes put in a sample rack.
The iodine atom-containing Hoechst compound (I-Hoechst) and spheroids were incubated (24 hours) in the same manner as in Test Example 3 to obtain spheroids having the Hoechst compound taken up. The spheroids were put in tubes and the tubes were plated at the sample rack of the X-ray irradiation device. Since the sample rack is designed such that samples can be moved on the XYZ stage, the experimenter can perform X-ray irradiation by moving samples on the optical axis without entering the experimental hutch. After completion of X-ray irradiation to a sample, the sample rack is designed to automatically move such that the irradiation position faces the next sample. Thus, a series of X-ray irradiation can be automatically performed (see, FIG. 6). Before irradiation, the position of a sample was confirmed by an optical microscope and a laser, and monitored by a CCD camera during X-ray irradiation. Note that, since the energy of X-ray is extremely high, observation of spheroids and an absorption control of a tube by the CCD camera was not made. A refractive X-ray image of a tube was obtained to monitor of a sample position. The photon flux at a position of a sample was calculated as 3.9×10^8 (photons/second) by use of the SPECTRA code.
The spheroids prepared as mentioned above were irradiated with a monochromatic X-ray (energy: 33.0 key, 33.2 keV or 33.4 keV) for 30 minutes. After X-ray radiation, spheroids were incubated in a CO2 incubator at 37° C. for 3 days and thereafter, observed by a confocal microscope (visible light and fluorescent light). […]

[2] = test system: OVCAR8 tumor spheroid (hypoxic or normoxic); experiment: Destruction of hypoxic spheroid by monochromatic X-ray irradiation; format: cell-based, Human; settings: then monochromatic X-ray
Experimental: The iodine atom-containing Hoechst compound (I-Hoechst) and spheroids were incubated (24 hours) in the same manner as in Test Example 3 to obtain spheroids having the Hoechst compound taken up therein. The spheroids were put in tubes and further incubated in a hypoxic (0% oxygen concentration) condition for further 18 hours. As a control, spheroids were incubated in a normal (not hypoxic) oxygen condition (20% oxygen concentration) in the same manner for 18 hours. After incubation in a hypoxic (or normoxic) condition, the spheroids were irradiated with monochromatic X-rays in the same manner as in Test Example 5. In the Test, whether spheroids are placed in a hypoxic condition was checked by inducing expression of a hypoxic marker, HIF-1α. Note that, HIF-1α is a kind of a hypoxia inducible factor and measurable by a commercially available kit.
Furthermore, spheroids (nanoparticles carrying an iodine atom-containing Hoechst compound-spheroid) prepared in Test Example 8 are irradiated with monochromatic X-rays under a hypoxic condition in the same manner as in Test Example 7. It is confirmed that hypoxic spheroids irradiated with the X-rays are destroyed.

[3] = test system: DNA double strand in OVCAR8 tumor spheroid; experiment: γH2AX assay of spheroids immediately after monochromatic X-ray irradiation; format: cell-based, Human
Experimental: For investigating the mechanism of how to destroy spheroids, spheroids were irradiated with a monochromatic X-ray for 30 minutes. Immediately after irradiation and before incubation, spheroids were subjected to γH2AX assay to confirm the state of a DNA double strand. In the γH2AX assay, if a double strand is cleaved, red fluorescence is emitted. The γH2AX assay was performed by use of a commercially available kit in accordance with the instructions attached thereto.

[4] = test system: Human ovarian cancer cell OVCAR8 expressing GFP; experiment: Uptake by cancer cell, confocal microscopy; format: cell-based; settings: 50 nmol/mL, 24 hours, 37° C.
Experimental: Human ovarian cancer cell OVCAR8 expressing green fluorescent protein (GFP) was used as a cancer cell. Cancer cell OVCAR8 was cultured on RPMI1640 medium containing 10% inactivated FBS and 1% penicillin/streptomycin in a culture dish having a diameter of 100 mm. Furthermore, the iodine atom-containing Hoechst compound (I-Hoechst-3HCl) (0.1 mg, 151.57 nmol) was dissolved in water (0.15 mL) to prepare a solution (the amount of Hoechst compound: 1 μmol/mL) containing the iodine atom-containing Hoechst compound. The solution was added to the culture solution such that the amount of the Hoechst compound in the culture solution became 50 nmol/mL and incubated in a CO2 incubator at 37° C. for 24 hours. Thereafter, the culture medium was removed and the cells were washed. The cells were observed by a confocal microscope. Cell nuclei can be detected based on staining with a Hoechst compound (blue color emission) and expression of GFP (green fluorescence). […]
Nanoparticles (IH-BPMO) carrying an iodine atom-containing Hoechst (I-Hoechst) were added to a medium containing cancer cells and culture was performed for 24 hours in accordance with Test Example 8. Fluorescence was observed by a microscope.

OVCAR8 tumor spheroid [5] = experiment: Uptake into tumor spheroid, confocal microscopy; format: cell-based, Human; settings: 5 nmol/mL
Experimental: Human ovarian cancer cell OVCAR8 expressing green fluorescent protein (GFP) was used as a cancer cell. A tumor spheroid (hereinafter also referred to as “spheroid”) was formed from the cancer cell. Cancer cell OVCAR8 was cultured on RPMI1640 medium containing 10% inactivated FBS and 1% penicillin/streptomycin in a culture dish of 100 mm in diameter. For forming spheroids, […] of OVCAR8 cells were seeded in PrimeSurface96U culture plate (MS-9096U, Sumitomo Bakelite Co., Ltd). The OVCAR8 cells were cultured in a CO2 incubator at 37° C. for 7 days. Since the cells were not able to attach to a hydrophilic plate surface, the cells came together at the bottom of a well and formed three-dimensional spheroids at the bottom. In this manner, spheroids (estimated number of cells: approximately 100,000) of 500 μm in diameter were obtained.
Subsequently, an iodine atom-containing Hoechst compound (I-Hoechst-3HCl) (0.1 mg, 151.57 nmol) was dissolved in water (1.5 mL) to prepare a solution containing the iodine atom-containing Hoechst compound (amount of the Hoechst compound: 100 nmol/mL). […]
For the horizontal row, images in the column indicated by “GFP” are the observation results based on a fluorescence (green), whereas images in the column indicated by “I-Hoechst” are observation results based on staining (blue) with the Hoechst compound. […]

[6] = test system: ovarian cancer OVCAR8 cells; experiment: Cytotoxicity test by LDH (lactate dehydrogenase) method; format: cell-based, Human
Experimental: A Hoechst compound (normal compound containing no iodine atom) is generally considered to have low toxicity. The following experiment was carried out to confirm that iodine atom-containing Hoechst compounds have low toxicity. Iodine atom-containing Hoechst compounds (I-Hoechst, 3HCl) different in addition amount were each incubated with ovarian cancer OVCAR8 cells. Cytotoxicity was investigated by a commercially available kit in accordance with LDH (lactate dehydrogenase) method.
Furthermore, the safety of the nanoparticles carrying an iodine atom-containing Hoechst compound is confirmed in the same manner as in Test Example 6.

How did the Spheroid destruction (OVCAR8 tumor spheroid [1]; any of the monochromatic X-rays (33.0, 33.2 or 33.4 keV)) turn out when CN1CCN(c2ccc3nc(-c4ccc5nc(-c6ccc(O)cc6)[nH]c5c4)[nH]c3c2)CC1 [Hoechst 33258, reference compound] was run?
Its Spheroid destruction is “spheroids were not destroyed”.

What does the source list for CN1CCN(c2ccc3nc(-c4ccc5nc(-c6ccc(O)c(I)c6)[nH]c5c4)[nH]c3c2)CC1 [Hoechst 33342 analog 2]?
Spheroid destruction in hypoxic condition ([2]; 0% oxygen 18 hours): effectively destroyed; Spheroid destruction in normoxia condition ([2]; 20% oxygen 18 hours): effectively destroyed; DNA double strand break (γH2AX red fluorescence) ([3]; 33.0 keV, 30 minutes, immediately after irradiation): no DNA double strands were broken; DNA double strand break (γH2AX red fluorescence) ([3]; 33.2 keV, 30 minutes, immediately after irradiation): a DNA double strand was broken; DNA double strand break (γH2AX red fluorescence) ([3]; 33.4 keV, 30 minutes, immediately after irradiation): a DNA double strand was broken although the degree of double strand break is lower than the 33.2-keV monochromatic X-ray; DNA double strand break (γH2AX red fluorescence) ([3]; no irradiation with monochromatic X-ray): no DNA double strands were broken; Spheroid destruction (OVCAR8 tumor spheroid [1]; monochromatic X-ray 33.0 keV): spheroids were not destroyed; Spheroid destruction (OVCAR8 tumor spheroid [1]; monochromatic X-ray 33.2 keV): destroyed into pieces; Spheroid destruction (OVCAR8 tumor spheroid [1]; monochromatic X-ray 33.4 keV): spheroids were destroyed even though the degree of destruction was lower than the 33.2-keV monochromatic X-ray

Which results are given for CN1CCN(c2ccc3nc(-c4ccc5nc(-c6ccc(O)c(I)c6)[nH]c5c4)[nH]c3c2)CC1 [I-Hoechst-3HCl, Hoechst 33342 analog 2 trihydrochloride]?
Uptake and localization in cancer cell [4]: taken up within the cell, transported to the nucleus of the cell and localized in DNA; Permeation into interior of spheroid (OVCAR8 tumor spheroid [5]; confocal microscope): reaches not only cells close to the surface of a spheroid but also cells located at the center of the spheroid; Uptake and distribution in spheroids (OVCAR8 tumor spheroid [5]; incubation 1, 24, 96 hours): efficiently taken up by spheroids and uniformly distributed over the entire spheroids 24 hours later; Concentration at which no toxicity was shown (LDH method) [6]: ≤ 20 µM
